These results are taken from PubChem BioAssay (NCI).

Common to all, as to assay: NCI-60 cell line screen, 48 h
The test system of test [1] is 786-0 renal.
For test [2], the system named is CCRF-CEM leukemia.
The test system of test [3] is DLD-1 colon.
Test [4] relates to K-562 leukemia.
For test [5], the system named is M19-MEL melanoma.
The test system of test [6] is SK-MEL-28 melanoma.
The test system of test [7] is SNB-19 CNS.
Test [8] has as its system SNB-78 CNS.
In test [9] the test system is SN12C renal.
In test [10] the test system is MDA-MB-231 breast.

“And” between values parts separate entries of the source, which are not always exact repeats. Equal values may be shown once.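 1) Cells in 96-well plates. 2) Compound, 48 h, 5 concentrations. 3) Linear interpolation between surrounding doses. 4) Unreached endpoint = highest concentration. GI50: concentration for 50% inhibition of growth. TGI denotes the concentration required for complete inhibition of growth.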 Where only a bound is given, the exact number is not on record here.

`COc1ccc(OCC(=O)O)c2c1CCC(C(C)C)C2=O` (configuration not stated): the TGI in test [1], in [2], in test [3], in test [4], in test [5] and in [6] was > 100 µM in each case. The TGI in test [7] and in test [8] was > 100 µM each time.

As for `CN/N=C(/Cc1occc(=O)c1O)C(=O)Nc1ccc(C)c(C)c1`, the TGI in test [1], in [2], in [4], in [5], in test [6] and in test [9] was > 100 µM throughout. The TGI in test [7] and in test [8] was > 100 µM throughout.

Consider `COC(=O)C1(C)C=C(Nc2ccccc2)C(=O)N1c1ccccc1` (configuration not stated), for which the TGI in test [1], in test [2], in test [3], in test [4], in [5] and in test [6] was > 100 µM each time. Besides, the TGI in [9], in [7] and in test [8] was > 100 µM throughout.

For the compound `O=C1C2C(C(=O)N1O)N(Cc1ccccc1)C(=O)N2Cc1ccccc1` (configuration not stated), the TGI in [1], in test [2], in test [3], in test [4], in test [5] and in test [6] was > 100 µM each time. Moreover, the TGI in [9], in [7] and in test [8] was > 100 µM in each case.

On to `C/C(CN1C(=O)c2ccccc2C1=O)=N\NS(=O)(=O)c1cccc([N+](=O)[O-])c1`, for which the TGI in test [1], in test [2], in test [3], in [4], in test [5] and in test [6] was > 100 µM in each case. For the same compound, the TGI in test [9], in test [7] and in test [8] was > 100 µM in each case.

Regarding `O=C1NC(=O)C(C(=O)C(=O)Nc2ccc(Br)cc2)C(=O)N1`, the TGI in [1], in test [2], in test [3], in test [4], in test [5] and in test [6] was > 100 µM in each case. Also, the TGI in [9], in test [7] and in [8] was > 100 µM each time.

On to `Cc1[nH]c(=O)[nH]c(=O)c1N(CCF)CCCl`, for which the TGI in test [1] was 1470 µM; in test [2] it was 796 µM and 626 µM and 791 µM; in test [3], 1250 µM and 1290 µM and 830 µM; in [4], 757 µM and 1350 µM and 1110 µM; in test [10], 888 µM; in test [6] it was 589 µM and 1140 µM and 711 µM. In addition, the TGI is 480 µM and 641 µM and 1020 µM in [9]; 1160 µM and 2500 µM and 1820 µM in test [7]; 1000 µM and 1400 µM and 1210 µM in test [8]. Further, the GI50 in [2] is 96 µM and 48.4 µM; in [3], 303 µM and 472 µM; in test [4] it was 403 µM and 215 µM; in [6], 256 µM and 494 µM; in test [9] it was 159 µM and 120 µM and 312 µM; in test [7], 711 µM and 250 µM. In addition, the GI50 in [8] is 435 µM.

Take `CCOC(=N)CC(=O)Nc1ccc(Cl)cc1`: the TGI in [1], in test [2], in test [3], in [4], in [5] and in [6] was > 100 µM each time. The TGI in test [9], in test [7] and in test [8] was > 100 µM each time.

For the compound `O=S(=O)([O-])[O-].[OH3+].[OH3+].[OH3+].[Ru+2].c1ccccc1`, the GI50 in [1], in test [2], in test [3], in [4], in test [5] and in test [6] was > 100 µM each time. Also, the GI50 in test [9], in test [7] and in test [8] was > 100 µM in each case. Besides, the TGI in [1], in test [2], in test [3], in test [4], in test [5] and in test [6] was > 100 µM each time. Also, the TGI in test [9], in test [7] and in test [8] was > 100 µM in each case.

Regarding `O=C(CCN1CCN(c2cccc(Cl)c2)CC1)N1CCc2c([nH]c3ccccc23)C1c1cccnc1` (configuration not stated), the GI50 in test [1] was 5.96 µM; in test [2], 6.62 µM; in test [3], 8.09 µM; in [4] it was 3.99 µM; in test [9], 7.59 µM. Moreover, the TGI is 18.7 µM in test [1]; > 100 µM in test [2]; 25.4 µM in test [3]; 18.6 µM in test [4]; 26.4 µM in test [5]; 26.9 µM in test [6]. Further, the results for the TGI in test [9], in test [7] and in test [8] were 21.1 µM, 26.9 µM and 9.97 µM, respectively.

For `CC(Cn1c2c3ccccc3ccc2c2oc(=O)c3ccccc3c21)N(C)C` (configuration not stated), the TGI in [1], in test [2], in [3], in test [4], in test [6] and in test [7] was > 100 µM throughout. The TGI in test [8] is > 100 µM.

On to `O=C1C=CC(=O)c2c1ccc1c3ccccc3n(-c3ccccn3)c21`, for which the TGI is 28.5 µM in test [1]; > 100 µM in test [2]; 30.6 µM in test [3]; 51.1 µM in test [4]; 41.6 µM in test [5]; > 100 µM in test [6]. In addition, the TGI in test [9] and in test [8] was > 100 µM each time.

Turning to `CCCc1c2c([nH]c(=O)c1C)C(=O)c1[nH]c(=O)c(C)c(CCC)c1C2=O`, the TGI in [1] is > 100 µM; in test [2], 73.2 µM; in [4], 67.1 µM; in test [5], 9.52 µM; in test [6], > 100 µM; in test [9], 22.2 µM. For the same compound, the TGI is 55 µM in test [7] and > 100 µM in test [8].
